A value given as a limit tells only on which side of the number the result lay.

This note sets out measurements from patent US11999699B2, “Substituted pyrazole amides” (GRUENENTHAL GMBH, priority 2021, dated 2024).

T1 sequence (Q9Y5Y9 whole entry): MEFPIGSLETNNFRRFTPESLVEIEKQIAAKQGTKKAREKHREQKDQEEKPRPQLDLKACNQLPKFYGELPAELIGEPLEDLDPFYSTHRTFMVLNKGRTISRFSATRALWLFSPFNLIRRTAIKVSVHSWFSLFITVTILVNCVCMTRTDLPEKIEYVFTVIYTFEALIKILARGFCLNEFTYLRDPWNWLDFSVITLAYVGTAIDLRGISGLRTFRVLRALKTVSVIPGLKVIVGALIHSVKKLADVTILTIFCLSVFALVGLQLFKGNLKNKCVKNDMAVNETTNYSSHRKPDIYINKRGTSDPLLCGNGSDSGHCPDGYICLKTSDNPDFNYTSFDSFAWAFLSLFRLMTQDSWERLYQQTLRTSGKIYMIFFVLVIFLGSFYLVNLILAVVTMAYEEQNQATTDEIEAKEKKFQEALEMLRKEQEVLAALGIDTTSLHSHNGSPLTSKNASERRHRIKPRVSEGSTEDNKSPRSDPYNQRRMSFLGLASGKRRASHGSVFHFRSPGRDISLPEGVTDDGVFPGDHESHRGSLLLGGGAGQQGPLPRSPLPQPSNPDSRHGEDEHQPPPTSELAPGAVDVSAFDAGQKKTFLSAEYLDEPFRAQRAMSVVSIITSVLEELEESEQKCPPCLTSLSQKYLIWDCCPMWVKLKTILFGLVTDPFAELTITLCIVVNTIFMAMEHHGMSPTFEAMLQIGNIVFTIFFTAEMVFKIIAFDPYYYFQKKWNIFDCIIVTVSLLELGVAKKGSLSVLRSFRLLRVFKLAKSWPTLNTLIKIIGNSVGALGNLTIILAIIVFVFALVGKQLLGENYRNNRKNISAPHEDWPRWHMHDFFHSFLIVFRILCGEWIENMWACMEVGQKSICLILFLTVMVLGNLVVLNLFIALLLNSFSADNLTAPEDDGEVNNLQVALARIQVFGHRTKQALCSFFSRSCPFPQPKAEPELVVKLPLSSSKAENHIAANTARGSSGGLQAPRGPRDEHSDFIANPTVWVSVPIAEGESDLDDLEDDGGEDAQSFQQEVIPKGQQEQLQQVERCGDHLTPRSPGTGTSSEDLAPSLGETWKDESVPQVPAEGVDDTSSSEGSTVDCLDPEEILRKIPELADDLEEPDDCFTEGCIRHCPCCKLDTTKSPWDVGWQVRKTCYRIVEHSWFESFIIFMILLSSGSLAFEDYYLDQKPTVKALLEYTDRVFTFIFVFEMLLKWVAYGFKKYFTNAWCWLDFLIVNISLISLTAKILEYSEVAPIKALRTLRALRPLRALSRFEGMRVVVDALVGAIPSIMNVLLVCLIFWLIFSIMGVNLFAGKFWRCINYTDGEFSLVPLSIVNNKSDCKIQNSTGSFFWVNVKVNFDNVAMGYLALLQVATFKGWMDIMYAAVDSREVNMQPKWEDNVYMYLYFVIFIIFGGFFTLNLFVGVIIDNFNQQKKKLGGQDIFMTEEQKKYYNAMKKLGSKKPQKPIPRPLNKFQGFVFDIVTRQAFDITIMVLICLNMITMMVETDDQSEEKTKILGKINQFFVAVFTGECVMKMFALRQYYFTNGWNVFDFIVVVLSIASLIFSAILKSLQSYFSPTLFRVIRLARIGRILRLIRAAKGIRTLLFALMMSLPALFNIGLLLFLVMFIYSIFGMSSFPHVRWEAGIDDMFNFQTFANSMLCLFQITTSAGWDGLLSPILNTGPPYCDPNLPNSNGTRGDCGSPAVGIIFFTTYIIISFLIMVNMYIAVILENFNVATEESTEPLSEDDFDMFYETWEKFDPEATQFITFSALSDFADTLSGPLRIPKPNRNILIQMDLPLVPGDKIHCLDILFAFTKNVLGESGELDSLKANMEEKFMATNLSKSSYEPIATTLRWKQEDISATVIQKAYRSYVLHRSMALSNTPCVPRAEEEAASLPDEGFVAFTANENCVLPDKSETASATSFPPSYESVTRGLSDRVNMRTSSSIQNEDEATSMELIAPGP
T1 sequence (Q9NY72 23-215 partner): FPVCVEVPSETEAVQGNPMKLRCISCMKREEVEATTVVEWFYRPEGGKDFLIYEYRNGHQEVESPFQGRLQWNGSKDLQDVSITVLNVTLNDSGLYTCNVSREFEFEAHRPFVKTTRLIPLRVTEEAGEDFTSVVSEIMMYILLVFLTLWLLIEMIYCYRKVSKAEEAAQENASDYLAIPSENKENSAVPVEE

This experiment has as its target T1, human NaV1.8 (Homo sapiens, UniProt Q9Y5Y9).
T1 construct: The following NaV1.8 recombinant cell line was used for recordings: HEK-NaV1.8 (NM 006514.1); expressed in transfected cells; host or cells: HEK (recombinant cell line HEK-NaV1.8)
The experiment is described as follows: Electrophysiology: automated whole-cell voltage-clamp (patch clamp, Qube384) recordings of sodium currents in HEK-NaV1.8 cells. It is filed as cell-based. To be noted: potency data either taken from inactivated or resting state, read-out: Potency category (human NaV1.8 IC50). How it is done: Electrophysiology: Voltage-Clamp Recordings
The following NaV1.8 recombinant cell line was used for recordings: HEK-NaV1.8 (NM 006514.1) with in (NM 018400.3).
Sodium currents were measured using the patch clamp technique in the whole-cell configuration using the Qube384 (Sophion A/S, Copenhagen, Denmark) automated voltage clamp platform. “Multi hole” plates were used for the cell line expressing NaV1.8 while “single hole” plates were used for the recombinant cell lines expressing the other subtypes. Appropriate filters (for minimum seal resistance and minimum current size) and series resistance compensation (for high quality sodium channel recordings) were applied. Data was collected at ambient room temperature.
The recording extracellular solution contained (in mM): NaCl 145 mM, KCl 4 mM, CaCl2 2 mM, MgCl2 1 mM, HEPES 10 mM, Glucose 10 mM, pH 7.4 (NaOH). The intracellular recording solution contained (in mM): CsF 120 mM, CsCl 20 mM, NaCl 10 mM, EGTA 10 mM, HEPES 10 mM, pH 7.2 (CsOH). Currents were recorded at 25 kHz sampling frequency and filtered at 5 kHz. Series resistance compensation was applied at 65%.
Vehicle (VEH) is the control condition where cells are exposed to 0.3% DMSO without compound. All runs include VEH controls being exposed to the same voltage protocols to assess non-compound related phenomena such as run down and then used to isolate compound dependent effects on currents.
To check for state-dependence inhibition, the following voltage-sequence was applied every 20 seconds:
From a resting membrane potential of −120 mV, the first test pulse (P1; 20 ms to −10 mV) was applied to check for channels in the Resting State followed by a brief recovery (20 ms to −120 mV), then holding the membrane voltage to V112 (4 seconds at voltage to obtain half the channel at Rest and half Inactivated) with a subsequent second test pulse (P2; 20 ms to −10 mV) to check for channels in the Inactivated State, followed by another brief recovery (20 ms to −120 mV) and a final third test pulse (P3; 20 ms to −10 mV) to check for recovered channels.
To check for frequency-dependent inhibition, a 10 Hz protocol and a 20 Hz protocol were applied; namely,
From a resting membrane potential of −120 mV, 40-pulses (10 ms to −10 mV) was applied at 10 Hz (at 100 ms between pulses) and then at 20 Hz (at 50 ms between pulses).
Each parameter was recorded (P1, P2, P3, P40 from 10 Hz and P40 from 20 Hz) during a control period (lasting 5 minutes) when establishing the baseline and during compound period (lasting ˜12 minutes) when test compound (or vehicle) was applied. For each parameter, the value at the end of the compound period was normalized to the vehicle baseline; as follows
To adjust for any variance in the Na^+ current signal during the compound period (owing to cumulative inactivation independent of compound or shifts in biophysics over time), a dedicated segment of the recording wells in each 384 plate were dedicated to having only vehicle exposure. These vehicle-only recordings were used to correct for any apparent “run-up” or “run-down” in the experiment.
The adjusted inhibition was calculated as follows: […]
Percent inhibition was determined and IC50 values were calculated using a 4 parameter logistic model within XLFit Software (IDBS, Boston MA):
[formula] where A and B are the maximal and minimum inhibition respectively, C is the IC50 concentration and D is the (Hill) slope.
The potency data was either taken from inactivated or resting state.
As for `CS(=O)(=O)c1cccc(NC(=O)c2c(C(F)(F)F)cnn2CC2CCCCC2)c1` [SC-26, 2-(cyclohexylmethyl)-N-(3-methylsulfonylphenyl)-4-(trifluoromethyl)pyrazole-3-carboxamide], the IC50 (commonly the concentration needed to halve the response being measured) is not above 100 nM.
As to `NC(=O)c1cc(NC(=O)c2c(C(F)(F)F)c(OCC3CC3)nn2CC2CCC(F)(F)C2)ccn1` (racemic) [SC-157, 4-(3-(cyclopropylmethoxy)-1-((3,3-difluorocyclopentyl)methyl)-4-(trifluoromethyl)-1H-pyrazole-5-ca±oxamido)picolinamide], the IC50 is not above 100 nM.
As to `CS(=O)(=O)c1cc(NC(=O)c2c(C(F)(F)F)c(C3CC3)nn2CC2CC(OC(F)F)C2)ccn1` (centres unmarked) [SC-290, 3-cyclopropyl-1-((3-(difluoromethoxy)cyclobutyl)methyl)-N-(2-(methyIsulfonyl)pyridin-4-yl)-4-(trifluoromethyl)-1H-pyrazole-5-carboxamide], the IC50 lay in the range of 100 to 1000 nM.
Take `Cc1c(C(C)(F)F)nn(CC2CCC(F)(F)C2)c1C(=O)Nc1ccnc(S(N)(=O)=O)c1` (centres unmarked) [SC-211, 1-((3,3-difluorocyclopentyl)methyl)-3-(1,1-difluoroethyl)-4-methyl-N-(2-sulfamoylpyridin-4-yl)-1H-pyrazole-5-carboxamide]: the IC50 was not above 100 nM.
For `Cc1ncc(NC(=O)c2c(C(F)(F)F)c(C)nn2CC2CCC(F)(F)CC2)cc1C(N)=O` [SC-251, 5-(1-((4,4-difluorocyclohexyl)methyl)-3-methyl-4-(trifluoromethyl)-1H-pyrazole-5-carboxamido)-2-methylnicotinamide], the IC50 was 1000 to 10000 nM.
On to `Cc1c(C(C)(F)F)nn([C@H](C)C2CC(F)(F)C2)c1C(=O)Nc1ccnc(S(C)(=O)=O)c1` [SC-222b], for which the IC50 was 1000 to 10000 nM.
The result for `CCc1nn(CC2CC(F)(F)C2)c(C(=O)Nc2ccnc(S(C)(=O)=O)c2)c1C` [SC-302, 1-((3,3-difluorocyclobutyl)methyl)-3-ethyl-4-methyl-N-(2-(methylsulfonyl)pyridin-4-yl)-1H-pyrazole-5-carboxamide] reads 100 to 1000 nM; that for `Cc1c(C(C)(F)F)nn(CC2CC(F)(F)C2)c1C(=O)Nc1cccc(S(N)(=O)=O)c1` [SC-295, 1-((3,3-difluorocyclobutyl)methyl)-3-(1,1-difluoroethyl)-4-methyl-N-(3-sulfamoylphenyl)-1H-pyrazole-5-carboxamide], not above 100 nM; that for `Cc1c(C(C)(F)F)nn(C[C@@H]2CC[C@H]2C(F)(F)F)c1C(=O)Nc1ccnc(C(N)=O)c1` (single isomer, unassigned) [SC-315b], not above 100 nM.
Regarding `CS(=O)(=O)c1cc(NC(=O)c2c(C(F)F)c(C3CC3)nn2CC2CCOCC2)ccn1` [SC-153, 3-cyclopropyl-4-(difluoromethyl)-N-(2-(methylsulfonyl)pyridin-4-yl)-1-((tetrahydro-2H-pyran-4-yl)methyl)-1H-pyrazole-5-carboxamide], the IC50 is not above 100 nM.
Regarding `CS(=O)(=O)c1ccc(F)c(NC(=O)c2c(C(F)(F)F)cnn2CC2CCC(F)(F)CC2)c1` [SC-22, 1-[(4,4-difluorocyclohexyl)methyl]-N-(2-fluoro-5-methanesulfonylphenyl)-4-(trifluoromethyl)-1H-pyrazole-5-carboxamide], the IC50 lay within 1000 to 10000 nM.
For `Cc1nn(CC2CCC(F)(F)C2)c(C(=O)Nc2cccc(S(N)(=O)=O)c2)c1OC(F)(F)F` (centres unmarked) [SC-304, 1-((3,3-difluorocyclopentyl)methyl)-3-methyl-N-(3-sulfamoyiphenyl)-4-(trifluoromethoxy)-1H-pyrazole-5-carboxamide], the IC50 fell in the range of 100 to 1000 nM.
Take `NC(=O)c1cc(NC(=O)c2c(C(F)(F)F)c(C3CC3)nn2CC2CCCCO2)ccn1` (single isomer, unassigned) [SC-258b]: the IC50 is not above 100 nM.
As to `O=C(Nc1ccnc(O)c1)c1c(C(F)(F)F)cnn1CC1CCCCCC1` [SC-31, 2-(cycloheptylmethyl)-N-(2-hydroxypyridin-4-yl)-4-(trifluoromethyl)pyrazole-3-carboxamide], the concentration for half-maximal inhibition (IC50) lay in the range of 100 to 1000 nM.
In the case of `NC(=O)c1cc(NC(=O)c2c(C(F)(F)F)c(C3CC3)nn2CC2CC(C(F)F)C2)ccn1` (single isomer, unassigned) [SC-221b, 4-(3-cyclopropyl-1-((3-(difluoromethyl)cyclobutyl)methyl)-4-(trifluoromethyl)-1H-pyrazole-5-carboxamido)picolinamide], the IC50 is not above 100 nM.
Consider `COCCOC[C@@H]1CCCC[C@@H]1Cn1nc(C(C)(F)F)c(C)c1C(=O)Nc1ccnc(C(N)=O)c1` (relative stereo) [SC-223, 4-(3-(1,1-difluoroethyl)-1-((2-((2-methoxyethoxy)methyl)cyclohexyl)methyl)-4-methyl-1H-pyrazole-5-ca±oxamido)picolinamide], for which the IC50 was not above 100 nM.
The result for `COc1nn(CC2CCC(F)(F)C2)c(C(=O)Nc2cccc(S(N)(=O)=O)c2)c1C(F)(F)F` (centres unmarked) [SC-265, 1-((3,3-difluorocyclopentyl)methyl)-3-methoxy-N-(3-sulfamoyIphenyl)-4-(trifluoromethyl)-1H-pyrazole-5-carboxamide] reads not above 100 nM; that for `CC(F)(F)c1nn(CC2CCC(F)(F)C2)c(C(=O)Nc2ccnc(C(N)=O)c2)c1Cl` (single isomer, unassigned) [SC-149a], not above 100 nM; that for `NC(=O)c1cc(NC(=O)c2c(C(F)(F)F)c(C(F)F)nn2CC2CC(F)(F)C2)ccc1F` [SC-141, N-(3-carbamoyl-4-fluorophenyl)-1-((3,3-difluorocyclobutyl)methyl)-3-(difluoromethyl)-4-(trifluoromethyl)-1H-pyrazole-5-carboxamide], not above 100 nM.
For `NC(=O)c1cc(NC(=O)c2c(C(F)(F)F)c(C3CC3)nn2CC2CC(F)(F)C2)ccn1` [SC-144, 4-(3-cyclopropyl-1-((3,3-difluorocyclobutyl)methyl)-4-(trifluoromethyl)-1H-pyrazole-5-carboxamido)picolinamide], the half-maximal inhibitory concentration (IC50) was not above 100 nM.
Turning to `NC(=O)c1cc(NC(=O)c2c(C(F)(F)F)c(C3CC3)nn2CC2CC(OC(F)(F)F)C2)ccn1` (single isomer, unassigned) [SC-219b], the IC50 is not above 100 nM.
Regarding `Cc1nn(CC2CCCCC2)c(C(=O)Nc2ccc(F)c(S(N)(=O)=O)c2)c1C(F)(F)F` [SC-238, 1-(cyclohexyimethyl)-N-(4-fluoro-3-sulfamoylphenyl)-3-methyl-4-(trifluoromethyl)-1H-pyrazole-5-carboxamide], the IC50 was not above 100 nM.
On to `Cc1c(C(C)(F)F)nn(CC2(C(F)(F)F)CC(F)(F)C2)c1C(=O)Nc1ccnc(S(C)(=O)=O)c1` [SC-220, 1-((3,3-difluoro-1-(trifluoromethyl)cyclobutyl)methyl)-3-(1,l-difluoroethyl)-4-methyl-N-(2-(methylsulfonyl)pyridin-4-yl)-1H-pyrazole-5-carboxamide], for which the IC50 is not above 100 nM.
Regarding `CC1(Cn2ncc(C(F)(F)F)c2C(=O)Nc2cccc(S(C)(=O)=O)c2)CCCCC1` [SC-232, 1-((1-methylcyclohexyl)methyl)-N-(3-(methylsulfonyl)phenyl)-4-(trifluoromethyl)-1H-pyrazole-5-carboxamide], the IC50 was not above 100 nM.
As to `NC(=O)c1cc(NC(=O)c2c(C(F)(F)F)c(C3CC3)nn2C[C@@H]2CC[C@H](C(F)(F)F)O2)ccn1` (single isomer, unassigned) [SC-284b], the concentration for half-maximal inhibition (IC50) is not above 100 nM.
Turning to `CS(=O)(=O)c1cccc(NC(=O)c2c(C(F)(F)F)cnn2CC2CCC(F)(F)CC2)c1` [SC-05, 2-[(4,4-difluorocyclohexyl)methyl]-N-(3-methylsulfonylphenyl)-4-(trifluoromethyl)pyrazole-3-carboxamide], the IC50 lay in the range of 100 to 1000 nM.
